The text below walks through data of PubChem BioAssay AID330 (DTP/NCI, 2004).

Where “and” joins values, the source holds several entries; their conditions need not be identical. Equal values may be shown once. Inconclusive results and toxic doses are left out.

The test system of this test is P388 leukemia ip, CD2F1 mice, survival T/C. As to the kind of experiment: NCI In Vivo Anticancer Drug Screen. Data for tumor model P388 Leukemia (intraperitoneal) in CD2F1 (CDF1) mice. The following applies: endpoint: median survival time, higher = longer survival. Summed up: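 Mice carrying the transplanted tumor received test compound or vehicle. Survival was recorded in each group, and the value is the treated-group measurement divided by that of the vehicle-treated control group.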

[1] abbreviates: dose: 50.0 mg/kg/injection, schedule: Q01DX005 (ip), vehicle: saline with Tween-80.
Where [2] appears, read: dose: 100.0 mg/kg/injection, schedule: Q01DX005 (ip), vehicle: saline with Tween-80.
Setting [3] is: dose: 200.0 mg/kg/injection, schedule: Q01DX005 (ip), vehicle: saline with Tween-80.
Where [4] appears, read: dose: 60.0 mg/kg/injection, schedule: Q01DX005 (ip), vehicle: saline with Tween-80.
The mark [5] stands for this setting: dose: 120.0 mg/kg/injection, schedule: Q01DX005 (ip), vehicle: saline with Tween-80.
[6] abbreviates: dose: 12.5 mg/kg/injection, schedule: Q01DX009 (ip), vehicle: saline with Tween-80.
Where [7] appears, read: dose: 25.0 mg/kg/injection, schedule: Q01DX009 (ip), vehicle: saline with Tween-80.
Setting [8] is: dose: 50.0 mg/kg/injection, schedule: Q01DX009 (ip), vehicle: saline with Tween-80.
Setting [9] is: dose: 100.0 mg/kg/injection, schedule: Q01DX009 (ip), vehicle: saline with Tween-80.
Where [10] appears, read: dose: 200.0 mg/kg/injection, schedule: Q01DX009 (ip), vehicle: saline with Tween-80.
The mark [11] stands for this setting: dose: 400.0 mg/kg/injection, schedule: Q01DX009 (ip), vehicle: saline with Tween-80.
Setting [12] is: dose: 60.0 mg/kg/injection, schedule: Q01DX005 (ip), vehicle: saline.
The mark [13] stands for this setting: dose: 120.0 mg/kg/injection, schedule: Q01DX005 (ip), vehicle: saline.

For `CCCCCCCC(=O)Nc1nnc(SCCCCCCSc2nnc(NC(=O)CCCCCCC)s2)s1`, the T/C reads like this: (dose: 50.0 mg/kg/injection, schedule: Q01DX005 (ip), vehicle: Klucel + Tween-80) 90 % of control; (dose: 100.0 mg/kg/injection, schedule: Q01DX005 (ip), vehicle: Klucel + Tween-80) 90 % of control; (dose: 200.0 mg/kg/injection, schedule: Q01DX005 (ip), vehicle: Klucel + Tween-80) 95 % of control.

As for `O=c1cccc(C2CC(CO)C3CCCCN3C2)[nH]1` (configuration not stated), the T/C by setting is: (dose: 1.1 mg/kg/injection, schedule: Q01DX009 (ip), vehicle: distilled water + Tween-80 + alcohol) 86 % of control; (dose: 1.5 mg/kg/injection, schedule: Q01DX009 (ip), vehicle: acid diluted with CMC) 96 % of control; (dose: 2.2 mg/kg/injection, schedule: Q01DX009 (ip), vehicle: acid diluted with CMC) 99 % of control; (dose: 2.2 mg/kg/injection, schedule: Q01DX009 (ip), vehicle: distilled water + Tween-80 + alcohol) 93 % of control; (dose: 4.5 mg/kg/injection, schedule: Q01DX009 (ip), vehicle: acid diluted with CMC) 96 % of control; (dose: 4.5 mg/kg/injection, schedule: Q01DX009 (ip), vehicle: distilled water + Tween-80 + alcohol) 93 % of control. Besides, the T/C is 99 % of control and 93 % of control (dose: 9.0 mg/kg/injection, schedule: Q01DX009 (ip), vehicle: acid diluted with CMC); 103 % of control (dose: 9.0 mg/kg/injection, schedule: Q01DX009 (ip), vehicle: distilled water + Tween-80 + alcohol); 94 % of control (dose: 18.0 mg/kg/injection, schedule: Q01DX009 (ip), vehicle: acid diluted with CMC).

For the molecule `COc1ccc(C2c3cc4c(cc3OC(C)(OC)C2C)OCO4)c(OC)c1` (configuration not stated), the T/C was 88 % of control under setting [1], 88 % of control under setting [2] and 91 % of control under setting [3].

`CN=NNc1ccc([N+](=O)[O-])cc1`: the T/C reads like this: (dose: 12.5 mg/kg/injection, schedule: Q01DX009 (ip), vehicle: Klucel (hydroxypropylcellulose) (HPC)) 98 % of control and 94 % of control; (dose: 25.0 mg/kg/injection, schedule: Q01DX009 (ip), vehicle: Klucel (hydroxypropylcellulose) (HPC)) 103 % of control and 109 % of control; (dose: 50.0 mg/kg/injection, schedule: Q01DX009 (ip), vehicle: Klucel (hydroxypropylcellulose) (HPC)) 108 % of control and 111 % of control; (dose: 100.0 mg/kg/injection, schedule: Q01DX009 (ip), vehicle: Klucel (hydroxypropylcellulose) (HPC)) 112 % of control; (dose: 200.0 mg/kg/injection, schedule: Q01DX009 (ip), vehicle: Klucel (hydroxypropylcellulose) (HPC)) 167 % of control.

Take `Cc1cc(Cl)ccc1NC(=O)NC(C)(C)COC(=O)Nc1cccc(Cl)c1`: the T/C is, setting by setting: (dose: 15.0 mg/kg/injection, schedule: Q01DX005 (ip), vehicle: saline with Tween-80) 99 % of control; (dose: 30.0 mg/kg/injection, schedule: Q01DX005 (ip), vehicle: saline with Tween-80) 94 % of control; under setting [4], 90 % of control; under setting [5], 86 % of control.

In the case of `N=c1c2c(ncn1Cc1ccccc1)CCN(Cc1ccccc1)C2`, the T/C runs as follows: under setting [6], 101 % of control; under setting [7], 100 % of control and 114 % of control; under setting [8], 104 % of control; under setting [9], 112 % of control.

Take `O=C(c1ccccc1)c1ccc2c(c1)-c1ccccc1-2`: the T/C under setting [9] was 100 % of control, the T/C under setting [10] is 104 % of control and the T/C under setting [11] is 95 % of control.

Regarding `O=C1NC(=O)C2(CCCc3ccc(N(CCO)CCO)cc32)N1` (configuration not stated), the T/C was 106 % of control (dose: 50.0 mg/kg/injection, schedule: Q01DX009 (ip), vehicle: DMSO); 103 % of control (dose: 100.0 mg/kg/injection, schedule: Q01DX009 (ip), vehicle: DMSO); 106 % of control (dose: 200.0 mg/kg/injection, schedule: Q01DX009 (ip), vehicle: DMSO).

As for `Cc1nn(C)c(=O)c2c3ccccc3nn12`, the T/C runs as follows: (dose: 100.0 mg/kg/injection, schedule: Q01DX001 (ip), vehicle: saline with Tween-80) 100 % of control; (dose: 200.0 mg/kg/injection, schedule: Q01DX001 (ip), vehicle: saline with Tween-80) 95 % of control; (dose: 400.0 mg/kg/injection, schedule: Q01DX001 (ip), vehicle: saline with Tween-80) 100 % of control.

As to `O=c1oc2ccc3ccccc3c2cc1-c1c[nH]c2ccccc12`, the T/C by setting is: under setting [4], 98 % of control; under setting [5], 95 % of control; (dose: 240.0 mg/kg/injection, schedule: Q01DX005 (ip), vehicle: saline with Tween-80) 98 % of control.

Consider `O=C(O)CSC(=S)CCCCCCCCCCC(=S)SCC(=O)O`, for which the T/C was 111 % of control (dose: 12.5 mg/kg/injection, schedule: Q01DX005 (ip), vehicle: saline with Tween-80); 109 % of control (dose: 25.0 mg/kg/injection, schedule: Q01DX005 (ip), vehicle: saline with Tween-80); 116 % of control and 118 % of control under setting [1].

Turning to `O=C1O/C(=C2/OC(=O)c3ccccc32)c2ccccc21`, the T/C runs as follows: (dose: 3.13 mg/kg/injection, schedule: Q01DX009 (ip), vehicle: saline with Tween-80) 94 % of control; (dose: 6.25 mg/kg/injection, schedule: Q01DX009 (ip), vehicle: saline with Tween-80) 100 % of control; under setting [6], 100 % of control and 91 % of control; under setting [7], 100 % of control; under setting [8], 88 % of control; under setting [9], 88 % of control. In addition, the T/C reads like this: under setting [10], 90 % of control; under setting [11], 92 % of control.

Regarding `COc1cccc2c1C(=O)c1c(O)c3c(c(O)c1C2=O)CC(O)(/C(C)=N/NC(=O)CCCCCCC(=O)N/N=C(\C)C1(O)Cc2c(O)c4c(c(O)c2C(OC2CC(N)C(O)C(C)O2)C1)C(=O)c1c(OC)cccc1C4=O)CC3OC1CC(N)C(O)C(C)O1` (configuration not stated), the T/C is, setting by setting: (dose: 2.0 mg/kg/injection, schedule: Q01DX009 (ip), vehicle: water) 162 % of control; (dose: 4.0 mg/kg/injection, schedule: Q01DX009 (ip), vehicle: water) 212 % of control; (dose: 8.0 mg/kg/injection, schedule: Q01DX009 (ip), vehicle: water) 245 % of control; (dose: 16.0 mg/kg/injection, schedule: Q01DX009 (ip), vehicle: water) 87 % of control.

For `NCCCSc1ccccc1`, the T/C reads like this: under setting [12], 99 % of control; under setting [13], 97 % of control.

As for `Cn1c(CN(CCN(Cc2nc3ccccc3n2C)Cc2nc3ccccc3n2C)Cc2nc3ccccc3n2C)nc2ccccc21`, the T/C is, setting by setting: under setting [1], 100 % of control; under setting [2], 96 % of control; under setting [3], 101 % of control.

In the case of `CCNc1cc(N)[n+](CC)c2n[nH]c(/N=C/c3cc(Cl)cc(Cl)c3O)c12`, the T/C is, setting by setting: under setting [1], 97 % of control; under setting [2], 87 % of control; under setting [3], 93 % of control.

Consider `CN(CCCCCC(=O)O)c1ccncc1`, for which the T/C (dose: 50.0 mg/kg/injection, schedule: Q01DX005 (ip), vehicle: saline) is 103 % of control; the T/C (dose: 100.0 mg/kg/injection, schedule: Q01DX005 (ip), vehicle: saline) is 100 % of control; the T/C (dose: 200.0 mg/kg/injection, schedule: Q01DX005 (ip), vehicle: saline) was 108 % of control.

As for `COC(=O)CCC(=S)N(C)C`, the T/C is, setting by setting: (dose: 50.0 mg/kg/injection, schedule: Q01DX005 (ip), vehicle: Klucel (hydroxypropylcellulose) (HPC)) 101 % of control; (dose: 100.0 mg/kg/injection, schedule: Q01DX005 (ip), vehicle: Klucel (hydroxypropylcellulose) (HPC)) 101 % of control; (dose: 200.0 mg/kg/injection, schedule: Q01DX005 (ip), vehicle: Klucel (hydroxypropylcellulose) (HPC)) 103 % of control.

As for `O=c1ccncn1C1OC(CO)C(O)C1O` (configuration not stated), the T/C under setting [12] is 103 % of control; the T/C under setting [13] was 102 % of control; the T/C (dose: 240.0 mg/kg/injection, schedule: Q01DX005 (ip), vehicle: saline) was 110 % of control.
